Data reported in BindingDB's records for PubMed 2530338 (Medical University of South Carolina, 1989).

target: T1, Thromboxane A2 receptor (Homo sapiens, UniProt P21731)
T1 sequence (P21731 whole entry): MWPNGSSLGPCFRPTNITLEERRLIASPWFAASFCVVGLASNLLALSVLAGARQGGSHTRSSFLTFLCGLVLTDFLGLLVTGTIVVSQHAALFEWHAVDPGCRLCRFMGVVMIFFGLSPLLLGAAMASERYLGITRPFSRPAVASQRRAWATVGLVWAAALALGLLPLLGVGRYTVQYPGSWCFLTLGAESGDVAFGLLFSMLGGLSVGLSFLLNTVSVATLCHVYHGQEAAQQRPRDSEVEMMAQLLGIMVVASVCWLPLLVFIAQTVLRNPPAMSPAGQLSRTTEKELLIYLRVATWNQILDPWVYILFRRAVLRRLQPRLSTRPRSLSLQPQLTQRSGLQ

SMILES	Ki [nM]
CCCCC[C@H](O)/C=C/C1[C@@H](C/C=C\CCCC(=O)O)[C@H]2CO[C@@H]1C2 (some centres undefined) [U46619]	62
O=C(O)C[C@@H]1CCCc2c1n(Cc1ccc(Cl)cc1)c1ccc(F)cc21 [CAS_113243-00-8]	424
CCCCC[C@H](O)/C=C/C1C[C@H]2C[C@H](S2)[C@@H]1C/C=C\CCCC(=O)O (some centres undefined) [STA2]	17
CCCCC[C@H](O)CC[C@H]1c2cc([nH]n2)[C@@H]1CC=CCCCC(=O)O [9,11-AzoPGH2]	41
